Reference: patent US6239284A, “Aromatic tetracyclic compounds of the retinoid type method for preparing and use” (priority 1997, dated 2001)
“Also recorded” adds a separate entry of the source. Like-named read-outs stand apart in the source and are kept apart here.

Legend:
T-47D cells = experiment: Anti-proliferation effect, estrogen-induced growth of T-47D cells; format: cell-based, human
Experimental: (§1) So as to test the anti-proliferation effect of the retinoids, growth experiments under oestrogenic conditions were carried out on cells MCF-7 and T-47D. These are the human estrogen-dependent mammary cancer cells which express the receptor to RE estrogens. The effect of the molecules is evaluated after 7 days of culture in oestrogenic conditions (estradiol 10^-9 M) by dosing the cellular DNA. The cells are distributed in 24 well plates at a density of 2×10^4 cells per well. The tests with the different retinoids are carried out in triplicate and the culture medium is changed after 4 days of growth.
(§2) The effect of the retinoids on the growth of MCF-7 and T-47D cells is evaluated after 7 days of culture in the presence of 10^-9 M estradiol by dosing the cellular DNA.

MCF-7 cells = experiment: Anti-proliferation effect, estrogen-induced growth of MCF-7 cells; format: cell-based, human
Experimental: as §1, §2

AP-1 = experiment: Anti-AP-1 effect, MTLN cellular lineage (MCF-7 with (TRE)3-tk-Luc) activated by TPA; format: cell-based, human; details: for Anti-AP-1 effect, Inhibition (%): 10^-7 M TPA, range of several experiments; for inhibition at 1 µM: Homo sapiens, AP1, read-out: Inhibition of AP-1 route (MTLN)
Experimental: The anti-factor AP-1 transrepressor effect of retinoids is determined using the MTLN lineage, coming from MCF-7 cells transfected in a stable fashion by a vector p(TRE)3 -tk-Luc which places the expression of the gene of luciferase under the control of […]. TPA activates the AP-1 complex formed from proteins of the family of nuclear proto-oncogenes (c-Jun and c-Fos). […] The experiments ware made with the MTLN cells activated by 10^-7 M TPA.
The effect of the compounds on the MTLN cells activated by 10^-7 M TPA is expressed as a percentage. […] The inhibitive properties of the products are calculated after deduction of the base activity of the cells. The percentages reported correspond to a range of inhibitions determined from several experiments.

ERE = experiment: Anti-estrogenic effect, MELN cellular lineage (MCF-7 with ERE-βGlob-Luc) activated by estradiol; format: cell-based, human
Experimental: MCF-7 cells express RARα,γ and RXRα. The transfection of MCF-7 cells by an estrogen-dependent gene (ERE-βGlob-Luc) has permitted the establishment of the MELN cellular lineage, used to determine the anti-oestrogenic activity of the retinoids. These cells contain the gene of the luciferase under the transcriptional control of the promoter of the βGlobine and of the response element ERE isolated from the gene of chicken vitelogenine A2. The experiments are carried out with MELN cells activated by 10^-9 M estradiol. The level of base activity of the MELN cells is obtained with the anti-estrogen 1 μM 4-OH-tamoxifen (hydroxytamoxifen).
The effect of the products tested on the cells activated by 10^-9 M estradiol is expressed as a percentage, the level of base activity being deducted.

RARβ [1] = experiment: Transactivation of chimerical receptor RARβ-ERcassette, transient transfection of HeLa cells; format: cell-based; details: for RAR-ERcassette RARβ transactivation (%): 100% = TTNPB 10^-8 M
Text: (§3) The HeLa cells are co-transfected by a plasmid which codes for a retinoic receptor in which the C domain of bonding to the DNA is substituted by that of the receptor to RE estrogens, and a plasmid which places the expression of the luciferase under the control of an ERE (Element of Response to Estrogens). The expressed chimerical receptors are designated as RARα-ERcassette, RARβ-ERcassette, RARγ-ERcassette and RXRα-ERcassette. The A, B, D, E and F regions of the natural receptor are preserved as well as the transcriptional co-operation between the activation domains AF-1 and AF-2. These transitory transfection experiments follow the method of co-precipitation to calcium phosphate. The HeLa cells are co-transfected by […] of plasmid coding for the chimerical receptor, […] of reporter plasmid and […] of expression vector CMV-β-galactosidase used as an internal control of transfection. 24 hours after the transfection, the cells are incubated for 16 hours with the different effectors.
(§4) In this type of chimerical receptor, the C domain of bonding to the DNA of RAR is substituted by that of the receptor to the RE estrogens. The protein obtained is close to the natural RAR receptor and preserves the transcriptional properties of the AF-1 and AF-2 domains. It modulates the transcription by means of an ERE. This RAR-ERcassette model allows one to observe a transcriptional response to a more physiological ligand.
(§5) The study of the selectivity of the compounds was carried out with the RAR-ERcassette chimerical receptors model.
(§6) On one and the same line in the Table, the cis (Z) compound represents the isomeric structure of the trans (E) compound.

RARE [2] = experiment: HRLN transactivation (stably transfected HeLa, RARE3-tk-Luc, endogenic receptors); format: cell-based
Text: (§7) The cellular lineages HRLN and HRL+N allow one to study the activation of an RARE by endogenic receptors using ligands at physiological concentrations. These lineages derive from HeLa cells transfected in a stable fashion by a reporter gene which places the expression of the gene of the luciferase under the control of a nuclear response element RARE (RARE3 -tk-Luc). The HeLa cells express all the known receptors of the retinoic acid (RARα,β,γ and RXRα,β,γ) with a predominance of RARα and RXRα. The response element RARE used for the HRLN cells corresponds to the sequence of the natural gene of the RARβ receptor (GGTTCAnnnnnAGTTCA). The HRL+N cells comprise the sequence GAGTGAnnnnnCGGTGA.

RARE [3] = experiment: HRL+N transactivation (stably transfected HeLa, RARE reporter, endogenic receptors); format: cell-based; details: for activation at 1 µM: Table 12
Text: as §7
The HRL+N lineage allows one to visualize a co-activation of the RAR and RXR receptors at the level of the RAR-RXR hetero-dimer.

RAR [4] = experiment: GAL-RAR model, specificity profile (transient transfection of HeLa cells)
Text: (§8) Studies of the transactivational specificity of the retinoids have been carried out by transitory transfection of HeLa cells. Two types of chimerical receptors can then be expressed by the cells. […] The C region (domain of bonding to the DNA) and the A and B regions (AF-1 activation domain) are suppressed.
(§9) These chimerical receptors activated by an agonist specifically stimulate the transcription of the gene of the luciferase present in a co-transfected plasmid ((17M)5-βG-Luc) where 17M is the response element of Gal4.

RARα [5] = experiment: Transactivation of chimerical receptor GAL4-RARα, transient transfection of HeLa cells (luciferase)
Text: as §8, §9

RARβ [6] = experiment: Transactivation of chimerical receptor GAL4-RARβ, transient transfection of HeLa cells (luciferase)
Text: as §8, §9

RARγ [7] = experiment: Transactivation of chimerical receptor GAL4-RARγ, transient transfection of HeLa cells (luciferase)
Text: as §8, §9

RARα [8] = experiment: Transactivation of chimerical receptor RARα-ERcassette, transient transfection of HeLa cells; format: cell-based; details: for RAR-ERcassette RARα transactivation (%): 100% = TTNPB 10^-8 M
Text: as §3, §4, §5, §6

RARγ [9] = experiment: Transactivation of chimerical receptor RARγ-ERcassette, transient transfection of HeLa cells; format: cell-based; details: 100% = TTNPB 10^-8 M
Text: as §3, §4, §5, §6

RAR [10] = experiment: RAR-ERcassette model, specificity profile (transient transfection of HeLa cells); format: cell-based
Text: as §3, §4, §5

[11] = Homo sapiens, read-out: Anti-oestrogenic effect, Inhibition (%)
[12] = Homo sapiens, -6 log M (10^-6 M), 10^-9 M estradiol, read-out: Anti-oestrogenic effect, Inhibition (%)

CC1(C)CCC(C)(C)c2cc(C(=O)Nc3ccc(C(=O)O)cc3)ccc21 [Am580, 4-[(5,6,7,8-tetrahydro-5,5,8,8-tetramethyl-2-naphthalenyl)carboxamido]benzoic acid]
inhibition at 1 µM (T-47D cells; Homo sapiens, T47D, 168 h, at 1 μM, 7 days, estradiol 10^-9 M, read-out: T-47D percentage inhibition of growth): 74% | inhibition at 1 µM (MCF-7 cells; Homo sapiens, MCF7, 168 h, at 1 μM, 7 days, estradiol 10^-9 M, read-out: MCF-7 percentage inhibition of growth): 67% | Anti-AP-1 effect, Inhibition (%) (AP-1; -7 log M): 41-48% | Anti-AP-1 effect, Inhibition (%) (AP-1; -8 log M): 40-46% | inhibition at 0.01 µM (ERE; Homo sapiens, -8 log M, 10^-9 M estradiol, read-out: Anti-oestrogenic effect, Inhibition (%)): 36 to 51%

Cc1cc2c(cc1C(=O)c1ccc(C(=O)O)cc1)C(C)(C)CCC2(C)C [LGD-CB14499]
RARβ transactivation (RAR-ERcassette) in words (RARβ [1]): transcriptional power appears higher notably through the RARβ-ERcassette | Emax (RARE [2]; Homo sapiens, HeLa, read-out: HRLN transactivation E max %): 30% | Emax at 1 µM (RARE [3]; Homo sapiens, HeLa): 94% | Anti-AP-1 effect (MTLN) in words (AP-1): causes an inhibition of the AP-1 route | Anti-AP-1 effect, Inhibition (%) (AP-1; -7 log M): 17-30% | Anti-estrogenic effect (MELN) in words (ERE): inactive | inhibition at 0.1 µM (ERE; [11]): 0% | inhibition at 1 µM (ERE; [11]): 0% | GAL-RAR agonist profile in words (RAR [4]): do not allow one to observe a good transactivation mediated by RAR | GAL4-RARα activity, % of activity measured for 10^-8 M TTNPB (RARα [5]; Concentration -6 (log M)): 17% | GAL4-RARα activity, % of activity measured for 10^-8 M TTNPB (RARα [5]; Concentration -7 (log M)): 4% | GAL4-RARα activity, % of activity measured for 10^-8 M TTNPB (RARα [5]; Concentration -8 (log M)): 1% | GAL4-RARβ activity, % of activity measured for 10^-8 M TTNPB (RARβ [6]; Concentration -6 (log M)): 9% | GAL4-RARβ activity, % of activity measured for 10^-8 M TTNPB (RARβ [6]; Concentration -7 (log M)): 1% | GAL4-RARβ activity, % of activity measured for 10^-8 M TTNPB (RARβ [6]; Concentration -8 (log M)): 0% | GAL4-RARγ activity, % of activity measured for 10^-8 M TTNPB (RARγ [7]; Concentration -6 (log M)): 13% | GAL4-RARγ activity, % of activity measured for 10^-8 M TTNPB (RARγ [7]; Concentration -7 (log M)): 0% | GAL4-RARγ activity, % of activity measured for 10^-8 M TTNPB (RARγ [7]; Concentration -8 (log M)): 0%

Cc1cc2c(cc1/C=C1/CCc3cc(C(=O)O)ccc31)C(C)(C)CCC2(C)C [CB75403, (Z) 1-[2-(5,6,7,8-tetrahydro-3,5,5,8,8-pentamethyl)naphthalenylmethylene]-2,3-dihydro-1H-indene-5-carboxylic acid]
RARα transactivation (RAR-ERcassette) in words (RARα [8]): inactive on RARα | RAR-ERcassette RARα transactivation (%) (RARα [8]; -6 log M (1 μM)): 12% | RAR-ERcassette RARα transactivation (%) (RARα [8]; -7 log M): 3% | RARβ transactivation (RAR-ERcassette) in words (RARβ [1]): same level of transactivation through the intermediary of RARβ at 0.1 μM and at 1 μM and also at 3 μM | RAR-ERcassette RARβ transactivation (%) (RARβ [1]; -6 log M (1 μM)): 65% | RAR-ERcassette RARβ transactivation (%) (RARβ [1]; -7 log M): 68% | RAR-ERcassette RARγ transactivation (%) (RARγ [9]; -6 log M (1 μM)): 68% | RAR-ERcassette RARγ transactivation (%) (RARγ [9]; -7 log M): 40% | activation at 1 µM (RARE [3]; Homo sapiens, HeLa): 18% | inhibition at 1 µM (AP-1): ~30% | inhibition at 1 µM (ERE; [12]): 0% | RAR-ERcassette profile in words (RAR [10]): RARβ,γ specificity; also recorded: RARβ,γ selectivity

Cc1cc2c(cc1/C=C1/CCc3cc(-c4nnn[nH]4)ccc31)C(C)(C)CCC2(C)C [CB02981, (Z) 5-[1-[2-(5,6,7,8-tetrahydro-3,5,5,8,8-pentamethyl)naphthalenylmethylene]-2,3-dihydro-1H-indenyl]-1H-tetrazole]
RAR-ERcassette RARα transactivation (%) (RARα [8]; -6 log M (1 μM)): 4% | RAR-ERcassette RARβ transactivation (%) (RARβ [1]; -6 log M (1 μM)): 7% | RAR-ERcassette RARγ transactivation (%) (RARγ [9]; -6 log M (1 μM)): 0% | Effect on growth of T-47D cells in words (T-47D cells; estrogenic conditions): no effect whatsoever | Effect on growth of MCF-7 cells in words (MCF-7 cells; estrogenic conditions): no effect whatsoever | HRLN transactivation in words (RARE [2]): inactive | activation at 1 µM (RARE [2]; Homo sapiens, HeLa): 0% | HRL+N transactivation in words (RARE [3]): does not cause transactivation mediated by RAR and RXR | activation at 1 µM (RARE [3]; Homo sapiens, HeLa): 0% | Anti-AP-1 effect (MTLN) in words (AP-1): in association with a RXR agonist, an additive effect of the inhibiting effects of the two molecules is observed; also recorded: dissociating compound and causes inhibition of the AP-1 ring | inhibition at 1 µM (AP-1): ~20% | inhibition at 1 µM (ERE; [12]): 0% | RAR-ERcassette profile in words (RAR [10]): inactive

CC1(C)CCC(C)(C)c2cc(/C=C3/CCc4cc(-c5nnn[nH]5)ccc43)ccc21 [CB94083, (Z) 5-[1-[2-(5,6,7,8-tetrahydro-5,5,8,8-tetramethyl)naphthalenylmethylene]-2,3-dihydro-1H-indenyl]-1H-tetrazole]
RAR-ERcassette RARα transactivation (%) (RARα [8]; -6 log M (1 μM)): 4% | RAR-ERcassette RARβ transactivation (%) (RARβ [1]; -6 log M (1 μM)): 14% | RAR-ERcassette RARγ transactivation (%) (RARγ [9]; -6 log M (1 μM)): 18% | activation at 1 µM (RARE [3]; Homo sapiens, HeLa): 13% | RAR-ERcassette profile in words (RAR [10]): weakly active

C/C(=C\c1ccc(C(=O)O)cc1)c1ccc2c(c1)C(C)(C)CCC2(C)C [TTNPB]
IC50 (T-47D cells; Homo sapiens, T47D, 168 h, read-out: T-47D IC50 (growth inhibition by 50%)): 3.3 ± 1.1 nM | IC50 (MCF-7 cells; Homo sapiens, MCF7, 168 h, read-out: MCF-7 IC50 (growth inhibition by 50%)): 0.35 ± 0.07 nM | EC50 (RARE [2]; Homo sapiens, HeLa, read-out: HRLN transactivation EC50): 0.55 ± 0.72 nM | Anti-AP-1 effect, Inhibition (%) (AP-1; -7 log M): 29-54% | Anti-AP-1 effect, Inhibition (%) (AP-1; -8 log M): 26-53% | inhibition at 0.01 µM (ERE; [11]): 30 to 41% | Inhibition in MELN (ERE; RAR selective molecules, 10^-9 M estradiol): ~40%
